{"source": "paper PMC11864979", "about": "“First-in-class ultralong-target-residence-time p38α inhibitors as a mitosis-targeted therapy for colorectal cancer” (Nature Cancer, 2025)", "assay_in_all_cases": "selectivity profiling in a panel of 340 wild-type kinases (Reaction Biology Europe)", "type_in_all_cases": "binding", "key": {"340 wild-type kinases [1]": {"target": "T1, 340 wild-type kinases (Homo sapiens, UniProt Q9NZJ5)", "T1 construct": "purchased Reaction Biology Europe", "T1 sequence (Q9NZJ5 30-1116)": "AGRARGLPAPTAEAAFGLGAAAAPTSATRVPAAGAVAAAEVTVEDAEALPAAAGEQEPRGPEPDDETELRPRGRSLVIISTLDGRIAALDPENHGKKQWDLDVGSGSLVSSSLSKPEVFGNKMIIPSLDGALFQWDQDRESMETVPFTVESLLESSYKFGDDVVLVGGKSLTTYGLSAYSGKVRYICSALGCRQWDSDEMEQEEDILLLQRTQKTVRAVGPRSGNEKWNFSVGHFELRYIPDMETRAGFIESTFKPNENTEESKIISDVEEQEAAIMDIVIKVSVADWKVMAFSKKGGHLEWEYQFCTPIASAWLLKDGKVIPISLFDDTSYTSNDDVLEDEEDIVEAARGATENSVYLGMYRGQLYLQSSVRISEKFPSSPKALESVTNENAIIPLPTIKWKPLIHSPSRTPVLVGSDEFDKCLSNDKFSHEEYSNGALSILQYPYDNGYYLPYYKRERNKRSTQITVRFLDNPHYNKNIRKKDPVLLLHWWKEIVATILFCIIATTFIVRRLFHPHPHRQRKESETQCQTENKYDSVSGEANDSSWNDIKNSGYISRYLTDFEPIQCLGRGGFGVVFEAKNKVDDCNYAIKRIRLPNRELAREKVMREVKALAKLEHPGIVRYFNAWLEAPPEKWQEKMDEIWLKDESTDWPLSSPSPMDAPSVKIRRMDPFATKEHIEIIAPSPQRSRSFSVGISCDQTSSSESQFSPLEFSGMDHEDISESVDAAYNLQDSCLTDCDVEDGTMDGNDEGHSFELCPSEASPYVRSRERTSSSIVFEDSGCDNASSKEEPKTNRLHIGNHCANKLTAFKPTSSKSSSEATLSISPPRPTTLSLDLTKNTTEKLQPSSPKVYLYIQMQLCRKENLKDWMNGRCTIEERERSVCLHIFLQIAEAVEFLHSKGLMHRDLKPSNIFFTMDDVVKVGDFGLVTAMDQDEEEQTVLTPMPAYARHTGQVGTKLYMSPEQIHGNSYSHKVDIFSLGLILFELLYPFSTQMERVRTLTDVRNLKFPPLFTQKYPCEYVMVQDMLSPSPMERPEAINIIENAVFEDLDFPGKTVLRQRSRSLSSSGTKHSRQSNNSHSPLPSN"}, "340 wild-type kinases [2]": {"target": "T2, 340 wild-type kinases (Homo sapiens, UniProt Q9UEE5)", "T2 construct": "purchased Reaction Biology Europe", "T2 sequence (Q9UEE5 1-414)": "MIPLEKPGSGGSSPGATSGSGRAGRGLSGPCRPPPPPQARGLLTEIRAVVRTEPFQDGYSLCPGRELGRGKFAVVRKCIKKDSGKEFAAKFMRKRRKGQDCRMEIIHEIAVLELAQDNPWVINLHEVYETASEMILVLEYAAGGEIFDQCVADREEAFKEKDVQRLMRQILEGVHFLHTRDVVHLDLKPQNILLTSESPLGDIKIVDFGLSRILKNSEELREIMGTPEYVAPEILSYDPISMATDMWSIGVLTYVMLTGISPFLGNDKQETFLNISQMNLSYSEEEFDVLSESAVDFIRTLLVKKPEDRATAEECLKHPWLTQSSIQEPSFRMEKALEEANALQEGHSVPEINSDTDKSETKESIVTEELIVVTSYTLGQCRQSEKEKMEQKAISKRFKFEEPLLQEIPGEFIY"}, "340 wild-type kinases [3]": {"target": "T3, 340 wild-type kinases (Homo sapiens, UniProt Q14289)", "T3 construct": "purchased Reaction Biology Europe", "T3 sequence (Q14289 whole entry)": "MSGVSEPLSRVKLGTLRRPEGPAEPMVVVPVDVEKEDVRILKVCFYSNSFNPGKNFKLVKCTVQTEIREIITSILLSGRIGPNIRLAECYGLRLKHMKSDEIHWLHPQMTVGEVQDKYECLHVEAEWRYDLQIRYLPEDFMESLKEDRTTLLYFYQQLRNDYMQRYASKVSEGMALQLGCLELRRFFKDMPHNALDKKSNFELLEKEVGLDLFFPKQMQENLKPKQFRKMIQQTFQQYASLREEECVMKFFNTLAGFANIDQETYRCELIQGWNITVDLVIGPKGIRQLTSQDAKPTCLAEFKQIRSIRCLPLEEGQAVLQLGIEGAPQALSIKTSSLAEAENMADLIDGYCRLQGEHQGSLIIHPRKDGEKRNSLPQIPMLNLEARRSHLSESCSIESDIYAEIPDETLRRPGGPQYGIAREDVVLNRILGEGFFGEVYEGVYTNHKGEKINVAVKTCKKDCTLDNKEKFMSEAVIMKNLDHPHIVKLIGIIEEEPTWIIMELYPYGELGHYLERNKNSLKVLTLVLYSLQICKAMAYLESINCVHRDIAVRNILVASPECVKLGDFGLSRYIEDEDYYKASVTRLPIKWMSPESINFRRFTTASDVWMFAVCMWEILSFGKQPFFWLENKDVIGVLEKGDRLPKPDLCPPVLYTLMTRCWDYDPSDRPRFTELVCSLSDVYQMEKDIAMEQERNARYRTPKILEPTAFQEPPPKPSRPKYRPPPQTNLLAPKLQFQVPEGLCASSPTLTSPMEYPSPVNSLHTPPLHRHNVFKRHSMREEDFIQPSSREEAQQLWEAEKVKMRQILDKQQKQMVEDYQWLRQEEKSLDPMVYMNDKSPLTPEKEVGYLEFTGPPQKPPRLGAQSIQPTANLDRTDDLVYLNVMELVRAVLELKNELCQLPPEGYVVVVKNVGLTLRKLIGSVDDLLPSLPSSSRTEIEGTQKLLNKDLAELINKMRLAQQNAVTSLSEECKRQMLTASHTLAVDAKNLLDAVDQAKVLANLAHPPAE"}, "340 wild-type kinases [4]": {"target": "T4, 340 wild-type kinases (Homo sapiens, UniProt Q9Y3S1)", "T4 construct": "purchased Reaction Biology Europe", "T4 sequence (Q9Y3S1 whole entry)": "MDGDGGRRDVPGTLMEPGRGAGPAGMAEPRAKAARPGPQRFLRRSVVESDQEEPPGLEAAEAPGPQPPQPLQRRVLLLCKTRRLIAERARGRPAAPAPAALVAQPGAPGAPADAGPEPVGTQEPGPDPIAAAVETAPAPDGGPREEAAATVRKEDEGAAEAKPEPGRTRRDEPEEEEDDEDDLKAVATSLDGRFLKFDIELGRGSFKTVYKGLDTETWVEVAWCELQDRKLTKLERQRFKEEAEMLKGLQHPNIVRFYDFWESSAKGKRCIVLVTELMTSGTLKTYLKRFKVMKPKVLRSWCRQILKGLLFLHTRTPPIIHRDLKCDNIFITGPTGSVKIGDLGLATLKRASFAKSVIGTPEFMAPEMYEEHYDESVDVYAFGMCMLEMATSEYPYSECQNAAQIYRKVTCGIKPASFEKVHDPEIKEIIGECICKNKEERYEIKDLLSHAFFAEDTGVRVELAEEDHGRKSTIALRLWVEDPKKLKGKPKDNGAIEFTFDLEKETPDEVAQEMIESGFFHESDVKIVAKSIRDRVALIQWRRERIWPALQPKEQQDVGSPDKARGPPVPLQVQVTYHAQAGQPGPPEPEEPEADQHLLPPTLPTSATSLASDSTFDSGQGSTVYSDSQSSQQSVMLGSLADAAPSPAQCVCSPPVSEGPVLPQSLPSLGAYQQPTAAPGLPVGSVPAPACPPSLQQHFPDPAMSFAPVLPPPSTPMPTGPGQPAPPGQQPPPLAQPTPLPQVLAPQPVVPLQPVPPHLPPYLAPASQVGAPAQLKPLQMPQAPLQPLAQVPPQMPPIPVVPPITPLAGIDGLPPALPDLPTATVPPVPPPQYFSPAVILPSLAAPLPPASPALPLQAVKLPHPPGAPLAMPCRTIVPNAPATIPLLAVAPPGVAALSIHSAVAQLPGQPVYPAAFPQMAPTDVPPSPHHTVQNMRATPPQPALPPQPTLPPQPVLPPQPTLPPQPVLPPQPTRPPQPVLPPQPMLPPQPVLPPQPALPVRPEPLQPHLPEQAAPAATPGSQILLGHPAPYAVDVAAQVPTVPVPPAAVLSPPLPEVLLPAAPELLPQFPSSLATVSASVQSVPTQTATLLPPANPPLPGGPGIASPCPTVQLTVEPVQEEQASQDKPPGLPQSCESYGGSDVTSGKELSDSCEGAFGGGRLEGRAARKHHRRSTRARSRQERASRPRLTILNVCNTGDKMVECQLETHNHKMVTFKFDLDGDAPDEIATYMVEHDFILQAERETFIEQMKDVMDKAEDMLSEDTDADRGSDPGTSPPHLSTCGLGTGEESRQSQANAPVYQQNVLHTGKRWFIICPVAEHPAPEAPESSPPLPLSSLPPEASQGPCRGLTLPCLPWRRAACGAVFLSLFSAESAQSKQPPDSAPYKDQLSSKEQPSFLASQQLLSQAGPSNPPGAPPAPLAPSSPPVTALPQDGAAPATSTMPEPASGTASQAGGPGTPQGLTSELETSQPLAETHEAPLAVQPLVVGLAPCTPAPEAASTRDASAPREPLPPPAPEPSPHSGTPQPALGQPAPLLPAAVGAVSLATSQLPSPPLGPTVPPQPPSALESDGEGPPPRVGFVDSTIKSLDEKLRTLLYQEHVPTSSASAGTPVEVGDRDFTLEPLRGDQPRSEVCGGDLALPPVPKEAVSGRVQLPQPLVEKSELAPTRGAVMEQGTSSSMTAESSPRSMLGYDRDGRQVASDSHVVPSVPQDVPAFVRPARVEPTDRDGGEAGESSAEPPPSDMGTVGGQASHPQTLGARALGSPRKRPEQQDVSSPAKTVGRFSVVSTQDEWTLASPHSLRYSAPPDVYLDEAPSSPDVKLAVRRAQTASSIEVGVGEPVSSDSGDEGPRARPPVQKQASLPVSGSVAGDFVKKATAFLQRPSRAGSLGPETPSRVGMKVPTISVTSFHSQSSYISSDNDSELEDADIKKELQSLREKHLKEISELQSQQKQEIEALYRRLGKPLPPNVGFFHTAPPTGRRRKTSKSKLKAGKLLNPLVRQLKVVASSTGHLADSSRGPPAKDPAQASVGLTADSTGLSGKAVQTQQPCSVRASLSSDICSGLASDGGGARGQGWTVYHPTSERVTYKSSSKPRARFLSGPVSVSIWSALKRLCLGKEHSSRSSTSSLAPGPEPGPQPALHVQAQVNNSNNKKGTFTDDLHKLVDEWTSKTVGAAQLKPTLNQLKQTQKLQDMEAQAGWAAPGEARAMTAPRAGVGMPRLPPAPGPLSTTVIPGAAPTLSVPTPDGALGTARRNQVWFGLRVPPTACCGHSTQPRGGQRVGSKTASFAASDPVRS"}, "340 wild-type kinases [5]": {"target": "T5, 340 wild-type kinases (Homo sapiens, UniProt Q9H1R3)", "T5 construct": "purchased Reaction Biology Europe", "T5 sequence (Q9H1R3 whole entry)": "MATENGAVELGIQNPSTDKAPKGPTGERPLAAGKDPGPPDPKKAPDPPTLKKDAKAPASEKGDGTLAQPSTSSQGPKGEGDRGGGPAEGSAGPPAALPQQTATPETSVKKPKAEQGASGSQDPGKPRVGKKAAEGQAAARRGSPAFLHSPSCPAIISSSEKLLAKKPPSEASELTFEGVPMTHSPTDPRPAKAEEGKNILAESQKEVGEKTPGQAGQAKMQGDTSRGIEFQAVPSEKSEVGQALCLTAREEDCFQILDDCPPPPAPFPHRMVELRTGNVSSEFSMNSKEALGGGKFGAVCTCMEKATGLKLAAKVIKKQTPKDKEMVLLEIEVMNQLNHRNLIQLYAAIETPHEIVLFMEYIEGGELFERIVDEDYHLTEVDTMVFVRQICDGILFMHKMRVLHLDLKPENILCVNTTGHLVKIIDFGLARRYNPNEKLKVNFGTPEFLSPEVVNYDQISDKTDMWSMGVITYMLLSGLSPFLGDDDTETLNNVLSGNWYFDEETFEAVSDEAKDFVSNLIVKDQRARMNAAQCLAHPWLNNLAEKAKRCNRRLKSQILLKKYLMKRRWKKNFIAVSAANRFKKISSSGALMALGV"}, "340 wild-type kinases [6]": {"target": "T6, 340 wild-type kinases (Homo sapiens, UniProt Q9P0L2)", "T6 construct": "purchased Reaction Biology Europe", "T6 sequence (Q9P0L2 whole entry)": "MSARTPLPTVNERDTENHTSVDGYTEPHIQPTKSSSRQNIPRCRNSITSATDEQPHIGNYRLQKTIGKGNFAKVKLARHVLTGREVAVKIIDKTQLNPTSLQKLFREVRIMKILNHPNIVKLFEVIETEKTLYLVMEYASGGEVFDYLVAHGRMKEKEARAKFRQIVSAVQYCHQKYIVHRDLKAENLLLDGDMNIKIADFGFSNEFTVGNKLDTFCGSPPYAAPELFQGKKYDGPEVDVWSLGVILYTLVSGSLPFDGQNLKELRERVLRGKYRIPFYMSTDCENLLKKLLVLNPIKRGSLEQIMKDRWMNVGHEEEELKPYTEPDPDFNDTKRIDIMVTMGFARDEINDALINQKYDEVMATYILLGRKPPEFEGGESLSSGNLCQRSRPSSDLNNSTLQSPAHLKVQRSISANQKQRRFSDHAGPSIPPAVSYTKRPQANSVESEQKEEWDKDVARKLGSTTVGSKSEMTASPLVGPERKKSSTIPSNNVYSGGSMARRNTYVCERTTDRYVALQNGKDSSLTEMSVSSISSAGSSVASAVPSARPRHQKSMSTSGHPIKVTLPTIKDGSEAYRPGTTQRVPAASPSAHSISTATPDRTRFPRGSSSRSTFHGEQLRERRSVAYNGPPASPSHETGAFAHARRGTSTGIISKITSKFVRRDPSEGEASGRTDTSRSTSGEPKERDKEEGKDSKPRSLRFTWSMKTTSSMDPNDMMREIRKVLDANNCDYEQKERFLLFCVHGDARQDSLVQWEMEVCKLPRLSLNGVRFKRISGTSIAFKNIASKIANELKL"}, "340 wild-type kinases [7]": {"tested_on": "340 wild-type kinases", "settings": "for residual activity: RAF1 YDYD"}, "340 wild-type kinases [8]": {"target": "T7, 340 wild-type kinases (Homo sapiens, UniProt Q13188)", "T7 construct": "purchased Reaction Biology Europe", "T7 sequence (Q13188 1-491)": "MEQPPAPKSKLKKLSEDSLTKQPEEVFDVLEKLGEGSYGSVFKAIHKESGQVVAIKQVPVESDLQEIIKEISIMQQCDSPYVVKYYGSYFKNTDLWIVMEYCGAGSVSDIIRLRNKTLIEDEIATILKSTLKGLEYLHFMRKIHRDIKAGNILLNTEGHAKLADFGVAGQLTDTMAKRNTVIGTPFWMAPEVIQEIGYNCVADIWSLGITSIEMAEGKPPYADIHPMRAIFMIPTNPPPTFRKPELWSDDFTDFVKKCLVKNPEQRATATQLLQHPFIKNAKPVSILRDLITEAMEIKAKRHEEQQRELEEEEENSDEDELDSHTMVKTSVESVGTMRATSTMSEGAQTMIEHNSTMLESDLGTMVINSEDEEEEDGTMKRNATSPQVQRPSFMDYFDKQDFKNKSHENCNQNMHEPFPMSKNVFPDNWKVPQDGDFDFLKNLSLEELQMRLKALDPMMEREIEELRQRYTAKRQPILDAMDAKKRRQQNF"}, "340 wild-type kinases [9]": {"target": "T8, 340 wild-type kinases (Homo sapiens, UniProt P49674)", "T8 construct": "purchased Reaction Biology Europe", "T8 sequence (P49674 whole entry)": "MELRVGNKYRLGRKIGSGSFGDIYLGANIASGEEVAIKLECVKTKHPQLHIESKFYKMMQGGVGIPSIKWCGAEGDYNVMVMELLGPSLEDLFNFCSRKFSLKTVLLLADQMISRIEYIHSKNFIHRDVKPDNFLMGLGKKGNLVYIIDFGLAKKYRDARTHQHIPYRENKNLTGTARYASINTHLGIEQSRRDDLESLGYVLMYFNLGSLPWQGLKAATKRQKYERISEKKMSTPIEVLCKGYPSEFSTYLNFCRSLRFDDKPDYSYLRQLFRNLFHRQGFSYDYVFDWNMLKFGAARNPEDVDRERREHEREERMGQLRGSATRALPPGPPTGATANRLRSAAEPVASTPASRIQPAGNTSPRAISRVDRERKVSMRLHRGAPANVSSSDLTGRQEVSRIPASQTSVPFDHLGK"}}, "note": "Like-named read-outs stand apart in the source and are kept apart here."}
{"compound": "CNC(=O)c1ccc2c(c1)C(=O)c1ccc(Nc3ccc(F)c(NC(=O)C4CC4)c3)cc1CC2", "note": "[Compound 2015]", "values": [{"measurement": "remaining activity at 1 µM", "setting": "340 wild-type kinases [1]; 1 µM 2015, read-out: EIF2AK3 residual activity", "result": 86.3, "unit": "%"}, {"measurement": "remaining activity at 0.2 µM", "setting": "340 wild-type kinases [1]; EIF2AK3, 0.2 µM, read-out: residual activity", "result": 93.3, "unit": "%"}, {"measurement": "remaining activity at 1 µM", "setting": "340 wild-type kinases [1]; EIF2AK3, 1 µM, read-out: residual activity", "result": 86.3, "unit": "%"}, {"measurement": "remaining activity at 0.2 µM", "setting": "340 wild-type kinases [2]; 0.2 µM 2015, read-out: STK17A residual activity", "result": 109, "unit": "%"}, {"measurement": "remaining activity at 1 µM", "setting": "340 wild-type kinases [2]; 1 µM 2015, read-out: STK17A residual activity", "result": 97.8, "unit": "%"}, {"measurement": "remaining activity at 0.2 µM", "setting": "340 wild-type kinases [2]; STK17A, 0.2 µM, read-out: residual activity", "result": 109, "unit": "%"}, {"measurement": "remaining activity at 1 µM", "setting": "340 wild-type kinases [2]; STK17A, 1 µM, read-out: residual activity", "result": 97.8, "unit": "%"}, {"measurement": "remaining activity at 0.2 µM", "setting": "340 wild-type kinases [3]; 0.2 µM 2015, read-out: PYK2 residual activity", "result": 98.8, "unit": "%"}, {"measurement": "remaining activity at 1 µM", "setting": "340 wild-type kinases [3]; 1 µM 2015, read-out: PYK2 residual activity", "result": 86.1, "unit": "%"}, {"measurement": "remaining activity at 0.2 µM", "setting": "340 wild-type kinases [3]; PYK2, 0.2 µM, read-out: residual activity", "result": 98.8, "unit": "%"}, {"measurement": "remaining activity at 1 µM", "setting": "340 wild-type kinases [3]; PYK2, 1 µM, read-out: residual activity", "result": 86.1, "unit": "%"}, {"measurement": "remaining activity at 0.2 µM", "setting": "340 wild-type kinases [4]; 0.2 µM 2015, read-out: WNK2 residual activity", "result": 107, "unit": "%"}, {"measurement": "remaining activity at 1 µM", "setting": "340 wild-type kinases [4]; 1 µM 2015, read-out: WNK2 residual activity", "result": 111, "unit": "%"}, {"measurement": "remaining activity at 0.2 µM", "setting": "340 wild-type kinases [4]; WNK2, 0.2 µM, read-out: residual activity", "result": 107, "unit": "%"}, {"measurement": "remaining activity at 1 µM", "setting": "340 wild-type kinases [4]; WNK2, 1 µM, read-out: residual activity", "result": 111, "unit": "%"}, {"measurement": "remaining activity at 0.2 µM", "setting": "340 wild-type kinases [5]; 0.2 µM 2015, read-out: MYLK2 residual activity", "result": 89.3, "unit": "%"}, {"measurement": "remaining activity at 1 µM", "setting": "340 wild-type kinases [5]; 1 µM 2015, read-out: MYLK2 residual activity", "result": 77.6, "unit": "%"}, {"measurement": "remaining activity at 0.2 µM", "setting": "340 wild-type kinases [5]; MYLK2, 0.2 µM, read-out: residual activity", "result": 89.3, "unit": "%"}, {"measurement": "remaining activity at 1 µM", "setting": "340 wild-type kinases [5]; MYLK2, 1 µM, read-out: residual activity", "result": 77.6, "unit": "%"}, {"measurement": "remaining activity at 0.2 µM", "setting": "340 wild-type kinases [6]; 0.2 µM 2015, read-out: MARK1 residual activity", "result": 97.9, "unit": "%"}, {"measurement": "remaining activity at 1 µM", "setting": "340 wild-type kinases [6]; 1 µM 2015, read-out: MARK1 residual activity", "result": 95.7, "unit": "%"}, {"measurement": "remaining activity at 0.2 µM", "setting": "340 wild-type kinases [6]; MARK1, 0.2 µM, read-out: residual activity", "result": 97.9, "unit": "%"}, {"measurement": "remaining activity at 1 µM", "setting": "340 wild-type kinases [6]; MARK1, 1 µM, read-out: residual activity", "result": 95.7, "unit": "%"}, {"measurement": "PKCbeta2 residual activity", "setting": "340 wild-type kinases [7]; 0.2 µM 2015", "result": 102.668, "unit": "%"}, {"measurement": "PKCbeta2 residual activity", "setting": "340 wild-type kinases [7]; 1 µM 2015", "result": 108.52, "unit": "%"}, {"measurement": "residual activity", "setting": "340 wild-type kinases [7]; 0.2 µM", "result": 80.31, "unit": "%"}, {"measurement": "residual activity", "setting": "340 wild-type kinases [7]; 1 µM", "result": 88.78, "unit": "%"}, {"measurement": "effect on p38α and p38β (in words)", "setting": "340 wild-type kinases [7]; panel of 340 kinases, 1 µM and 0.2 µM", "result": "specifically inhibited"}, {"measurement": "remaining activity at 0.2 µM", "setting": "340 wild-type kinases [8]; 0.2 µM 2015, read-out: MST2 residual activity", "result": 115, "unit": "%"}, {"measurement": "remaining activity at 1 µM", "setting": "340 wild-type kinases [8]; 1 µM 2015, read-out: MST2 residual activity", "result": 106, "unit": "%"}, {"measurement": "remaining activity at 0.2 µM", "setting": "340 wild-type kinases [8]; MST2, 0.2 µM, read-out: residual activity", "result": 115, "unit": "%"}, {"measurement": "remaining activity at 1 µM", "setting": "340 wild-type kinases [8]; MST2, 1 µM, read-out: residual activity", "result": 106, "unit": "%"}, {"measurement": "remaining activity at 0.2 µM", "setting": "340 wild-type kinases [9]; 0.2 µM 2015, read-out: CK1epsilon residual activity", "result": 114, "unit": "%"}, {"measurement": "remaining activity at 1 µM", "setting": "340 wild-type kinases [9]; 1 µM 2015, read-out: CK1epsilon residual activity", "result": 111, "unit": "%"}, {"measurement": "remaining activity at 0.2 µM", "setting": "340 wild-type kinases [9]; CK1epsilon, 0.2 µM, read-out: residual activity", "result": 114, "unit": "%"}, {"measurement": "remaining activity at 1 µM", "setting": "340 wild-type kinases [9]; CK1epsilon, 1 µM, read-out: residual activity", "result": 111, "unit": "%"}]}
